Laboratory results: patent EP3383888B9, “NEW PEPTIDES HAVING ANTIMICROBIAL ACTIVITY AND NEW ENZYME CAPABLE OF CONVERTING L-CONFIGURED RESIDUE IN D-CONFIGURED AMINO ACID IN A PEPTIDE” (Institut national de recherche pour l'agriculture, …, priority 2015, dated 2017)
Square brackets hold non-standard residues; d marks the D form. Ends that are not written are not given here. Peptide text beside a SMILES is read from it. d(aIle) = CC[C@H](C)[C@@H](N)C(=O)O

Columns and labels:
[1] = tested on: B. subtilis; assay: Inhibition assay on solid medium (plate growth inhibition); format: cell-based, Bacillus subtilis; conditions: 200 µg of peptide spotted, 37°C, Fig. 5A
Protocol: An overnight culture of the bacterial strain to be assayed was freshly inoculated to sterile BHI liquid medium. After 4 hours of bacterial growth at 37°C, the medium was diluted to 1/1000 and inoculated into a soft agarose medium pre-heated at 42°C. The agarose medium containing bacteria was overlaid on a previously jellified sterile BHI agarose layer. 200 µg of peptide was spotted onto the plate and bacterial growth proceeded at 37°C.

[2] = tested on: B. subtilis; assay: Inhibition assay on liquid medium (OD at 600 nm); format: cell-based, Bacillus subtilis; conditions: for Growth of B. subtilis in liquid LB medium (bacterial growth inhibition): Fig. 5B, Fig. 8a
Protocol: (§1) An overnight culture of the bacterial strain to be assayed was freshly inoculated to sterile LB liquid medium. After 4 hours of bacterial growth at 37°C, the medium was diluted to 1/10,000 and inoculated into sterile liquid LB or BHI medium. Peptide solution was added (1/100) to a final concentration ranging from 0.01 to 100µM and OD at 600 nm was recorded continuously using a Tecan microplate reader (Infinite® 200 PRO series).

[3] = tested on: Streptococcus agalactiae; assay: Inhibition assay on liquid medium (OD at 600 nm); format: cell-based; conditions: peptide at 100µM; Fig. 12
Protocol: as §1

| Molecule | Plate growth inhibition assay of B. subtilis [1] | Growth of B. subtilis in liquid LB medium (bacterial growth inhibition) ([2]; liquid LB medium) | Growth of B. subtilis in liquid LB medium (bacterial growth inhibition) ([2]; liquid LB medium, listed as epimerized peptide) | Growth of B. subtilis after addition of peptide at mid-exponential phase (cell density) ([2]; liquid LB medium, peptide added after 3 hours of growth, Fig. 9) | Growth of Streptococcus agalactiae in liquid BHI medium [3] | potency relative to the YydF18-49DD peptide ([2]; B. subtilis growth ratio, Fig. 8b&c) |
| --- | --- | --- | --- | --- | --- | --- |
| CC[C@H](C)[C@@H](NC(=O)[C@H](Cc1c[nH]c2ccccc12)NC(=O)[C@H](CCCNC(=N)N)NC(=O)[C@H](CC(N)=O)NC(=O)[C@H](CCC(=O)O)NC(=O)[C@H](CCCCN)NC(=O)[C@H](CO)NC(=O)[C@H](CCCCN)NC(=O)[C@H](NC(=O)[C@H](Cc1ccccc1)NC(=O)[C@H](Cc1ccc(O)cc1)NC(=O)[C@H](Cc1c[nH]c2ccccc12)NC(=O)[C@H](CC(C)C)NC(=O)[C@H](CC(=O)O)NC(=O)[C@H](CC(N)=O)NC(=O)[C@@H](NC(=O)[C@H](CCCCN)NC(=O)[C@H](C)NC(=O)[C@H](CC(C)C)NC(=O)[C@H](CCCCN)NC(=O)[C@H](CCC(N)=O)NC(=O)[C@H](CO)NC(=O)[C@H](CCC(=O)O)NC(=O)[C@H](CC(=O)O)NC(=O)[C@H](CC(C)C)NC(=O)[C@H](CC(C)C)NC(=O)CNC(C)=O)C(C)C)C(C)C)C(=O)N[C@@H](CC(C)C)C(=O)NCC(=O)N[C@@H](CO)C(=O)NCC(=O)N[C@@H](Cc1c[nH]cn1)C(=O)O [YydF18-49DD, Ac-GLLDESQKLAKVNDLWYF{d-V}KSKENRW{d-I}LGSGH (SEQ ID No 20)] (Ac-GLLDESQKLAKVNDLWYF[dV]KSKENRW[d(aIle)]LGSGH-OH) | strong inhibition growth | bacterial growth inhibition | strong and persistent inhibition | – | – | – |
| Ac-GLLDESQKLAKVNDLWYFVKSKENRWILGSGH (SEQ ID No 20) [YydF18-49, truncated form of YydF, residues 18 to 49, no modification (all L-amino acids)] | devoid of activity | – | – | a clear slow down followed by a decrease of the cell density | – | – |
| WYFVKSQSNRWIVGSGH (SEQ ID No 65) (WYF[dV]KSQSNRW[dI]VGSGH) [Peptide-SP] | – | – | – | – | inhibitors | – |
| YydF33-49DD: peptide of SEQ ID No 61 with the two epimerized residues D-Val36 and D-Ile44 (WYF[dV]KSKENRW[dI]LGSGH) | – | inhibit bacterial growth | – | – | inhibited | 100 times |
